Measured values published in ChEMBL document CHEMBL3832046, “DailyMed|setid=1da7847b-16e4-4bf1-957f-3894d023b339 | VIAGRA - sildenafil citrate tablet, film coated|PD-Rx Pharmaceuticals, Inc”.

Columns and labels:
[1] = (§1) Pharmacokinetic parameters for Sildernafil following oral administration of Sildernafil citrate tablets (Viagra).; format: ADME, organism-based; conditions: human, in vivo, dosed compound id 36, dosed compound name SILDERNAFIL CITRATE, tissue Plasma
[2] = test system: Homo sapiens; assay: as §1; format: ADME, organism-based; conditions: in vivo, po, dosed compound id 36, dosed compound name SILDERNAFIL CITRATE, tissue Plasma

CCCc1nn(C)c2c(=O)[nH]c(-c3cc(S(=O)(=O)N4CCN(C)CC4)ccc3OCC)nc12.O=C(O)CC(O)(CC(=O)O)C(=O)O [SILDENAFIL CITRATE]
Tmax ([1]; dietary status Fasting): 1 h | bioavailability [1]: 41% | Vss [2]: 105 L
